The source of these data is ChEMBL document CHEMBL5579838, “Design, synthesis and antitumor activity of a novel FGFR2-selective degrader to overcome resistance of the FGFR2V564F gatekeeper mutation based on a pan-FGFR inhibitor” (Eur J Med Chem, 2024).

As usually defined, the DC50 is the midpoint of the concentration-degradation curve. In general, AUC(0-t) refers to the area under the concentration-time curve up to a stated or last time point. For orientation: half-life means the time in which the quantity being followed falls by half. For orientation: Tmax means the time at which the peak concentration occurs. In general, IC50 refers to the concentration that gives 50% inhibition. As a reminder, the Cmax is the maximum level reached in the sampled fluid or tissue. What is called inhibition is the change of the read-out against control, counted positive when it falls. For orientation: bioavailability means dose-corrected exposure relative to a reference, in per cent.

Molecules are shown by their SMILES. Calls of active or inactive are those of the source. The rule behind the calls is not given here.

In series [1] the target is von Hippel-Lindau disease tumor suppressor/Fibroblast growth factor receptor 2 (Homo sapiens, UniProt P21802+P40337). The experiment in a line: PROTAC activity at VHL/FGFR2 in human KATO III cells assessed as induction of FGFR2 degradation incubated for 24 hrs by Western blot analysis. It is filed as cell-based. The conditions noted are these: kato iii stomach cancer cell line.

Series [2] is described as follows: AUC (0 to t) in overnight fasted mouse at 10 mg/kg, po administered as single dose by LC-MS/MS analysis. The conditions noted are these: in vivo. It is filed as ADME, organism-based.
Series [3] is described as follows: Half life in overnight fasted mouse at 1 mg/kg, iv administered as single dose by LC-MS/MS analysis. It is filed as ADME, organism-based. As to conditions: in vivo.
Series [4] is described as follows: Tmax in overnight fasted mouse at 10 mg/kg, po administered as single dose by LC-MS/MS analysis. It is filed as ADME, organism-based. The conditions noted are these: in vivo.
Series [5] relates to BaF3. Description: Antiproliferative activity against mouse BaF3 cells stably expressing wild type ETV6-FGFR3 fusion protein incubated for 72 hrs by CCK-8 assay. It is filed as functional, cell-based. The conditions noted are these: BaF3, 72 h.
Series [6] addresses T1, Fibroblast growth factor receptor 4 (Homo sapiens, UniProt P22455).
Target sequence in this assay (P22455 whole entry): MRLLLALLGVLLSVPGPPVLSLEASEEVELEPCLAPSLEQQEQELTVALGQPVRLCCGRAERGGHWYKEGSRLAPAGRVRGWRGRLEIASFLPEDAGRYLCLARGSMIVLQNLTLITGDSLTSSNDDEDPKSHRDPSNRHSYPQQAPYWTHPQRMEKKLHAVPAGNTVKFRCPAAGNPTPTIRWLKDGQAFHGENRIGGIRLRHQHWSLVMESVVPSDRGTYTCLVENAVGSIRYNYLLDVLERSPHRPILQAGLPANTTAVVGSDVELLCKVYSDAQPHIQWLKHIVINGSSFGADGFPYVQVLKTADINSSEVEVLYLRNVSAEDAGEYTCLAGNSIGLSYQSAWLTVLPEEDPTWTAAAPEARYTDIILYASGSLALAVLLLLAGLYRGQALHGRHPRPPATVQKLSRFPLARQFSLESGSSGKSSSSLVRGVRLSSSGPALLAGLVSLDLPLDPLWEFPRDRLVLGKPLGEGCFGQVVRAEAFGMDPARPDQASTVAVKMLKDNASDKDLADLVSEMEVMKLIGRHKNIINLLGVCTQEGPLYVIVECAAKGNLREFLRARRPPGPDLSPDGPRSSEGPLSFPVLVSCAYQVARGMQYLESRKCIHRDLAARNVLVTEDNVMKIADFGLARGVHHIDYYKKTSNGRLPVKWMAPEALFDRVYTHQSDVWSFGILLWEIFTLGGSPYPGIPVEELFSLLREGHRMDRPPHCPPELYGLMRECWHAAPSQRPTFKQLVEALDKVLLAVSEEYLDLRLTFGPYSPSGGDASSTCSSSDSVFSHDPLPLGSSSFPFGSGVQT
Description: Inhibition of FGFR4 (unknown origin)
The target in series [7] is T2, Fibroblast growth factor receptor 1 (Homo sapiens, UniProt P11362).
Target sequence in this assay (P11362 whole entry): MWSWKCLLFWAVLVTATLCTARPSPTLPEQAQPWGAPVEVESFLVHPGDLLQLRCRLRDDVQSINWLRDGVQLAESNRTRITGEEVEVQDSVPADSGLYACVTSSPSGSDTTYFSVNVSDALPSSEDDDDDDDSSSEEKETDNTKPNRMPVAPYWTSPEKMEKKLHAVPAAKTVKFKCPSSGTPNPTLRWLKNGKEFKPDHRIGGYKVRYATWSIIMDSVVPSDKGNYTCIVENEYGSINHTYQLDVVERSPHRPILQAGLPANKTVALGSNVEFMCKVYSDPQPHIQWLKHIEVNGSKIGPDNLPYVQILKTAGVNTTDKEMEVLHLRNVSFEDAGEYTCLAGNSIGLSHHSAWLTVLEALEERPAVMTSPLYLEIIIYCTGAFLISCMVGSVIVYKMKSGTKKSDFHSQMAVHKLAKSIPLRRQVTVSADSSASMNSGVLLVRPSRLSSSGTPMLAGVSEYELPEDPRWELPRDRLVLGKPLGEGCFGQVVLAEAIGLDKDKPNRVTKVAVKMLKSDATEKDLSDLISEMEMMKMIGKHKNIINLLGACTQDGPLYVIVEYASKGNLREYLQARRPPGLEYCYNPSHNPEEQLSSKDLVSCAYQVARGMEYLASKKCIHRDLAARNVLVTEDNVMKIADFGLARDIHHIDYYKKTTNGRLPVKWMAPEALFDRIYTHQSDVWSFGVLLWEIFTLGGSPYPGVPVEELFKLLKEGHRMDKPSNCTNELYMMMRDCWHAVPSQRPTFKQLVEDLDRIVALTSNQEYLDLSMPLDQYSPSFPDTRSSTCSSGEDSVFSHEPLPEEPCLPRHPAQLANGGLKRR
Description: Inhibition of FGFR1 (unknown origin)
The test system of series [8] is KATO III stomach cancer cell line. The experiment in a line: Induction of cell cycle arrest at G0/G1 phase in FGFR2 amplified human KATO III cells assessed as inhibition of cyclin D1 protein expression at 0.1 to 10 nM by Western blot analysis. As to conditions: dose 0.1-10 nM. It is filed as functional, cell-based.
Series [9] concerns the target T3, Fibroblast growth factor receptor 3 (Homo sapiens, UniProt P22607).
Target sequence in this assay (P22607 whole entry): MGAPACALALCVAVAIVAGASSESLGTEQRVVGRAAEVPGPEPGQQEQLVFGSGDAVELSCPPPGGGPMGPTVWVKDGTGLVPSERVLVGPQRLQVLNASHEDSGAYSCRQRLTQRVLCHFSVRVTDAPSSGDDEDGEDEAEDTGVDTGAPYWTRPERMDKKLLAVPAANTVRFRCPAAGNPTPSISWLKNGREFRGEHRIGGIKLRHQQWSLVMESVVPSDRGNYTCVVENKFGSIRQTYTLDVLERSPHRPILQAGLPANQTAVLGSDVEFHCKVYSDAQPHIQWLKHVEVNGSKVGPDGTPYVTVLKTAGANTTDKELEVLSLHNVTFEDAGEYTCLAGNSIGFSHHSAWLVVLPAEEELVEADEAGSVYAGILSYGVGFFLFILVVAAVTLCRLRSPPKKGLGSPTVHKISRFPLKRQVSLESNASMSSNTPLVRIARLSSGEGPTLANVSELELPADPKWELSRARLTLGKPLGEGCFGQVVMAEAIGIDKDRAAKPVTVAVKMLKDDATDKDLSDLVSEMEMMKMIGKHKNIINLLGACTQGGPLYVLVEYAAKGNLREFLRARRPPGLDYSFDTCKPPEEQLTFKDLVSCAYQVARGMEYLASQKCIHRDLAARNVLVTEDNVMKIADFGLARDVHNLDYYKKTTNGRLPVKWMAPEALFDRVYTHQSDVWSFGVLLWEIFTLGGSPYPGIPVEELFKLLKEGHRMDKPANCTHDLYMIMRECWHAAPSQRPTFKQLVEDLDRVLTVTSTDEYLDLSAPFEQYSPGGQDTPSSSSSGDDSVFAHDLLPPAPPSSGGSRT
Description: Inhibition of FGFR3 (unknown origin)
For another series, the system named is HCT-116. Description: cells. The conditions noted are these: Homo sapiens, HCT-116, 72 h.
Series [10] has as its system KATO III stomach cancer cell line. Description: Induction of cell cycle arrest at G0/G1 phase in FGFR2 amplified human KATO III cells at 0.1 to 10 nM incubated for 24 hrs by PI staining based flow cytometry analysis. It is filed as functional. The conditions noted are these: dose 0.1-10 nM. (Flow cytometry measures light scatter and fluorescence of single cells or particles in a stream.)

Series [11] has the same test system. Description: cells. The conditions noted are these: Homo sapiens, 72 h.
Description: Antiproliferative activity against FGFR2 amplified human KATO III cells measured after 3 days by MTT assay
For series [12] the test system is unchanged. Description: Induction of cell cycle arrest at G0/G1 phase in FGFR2 amplified human KATO III cells assessed as inhibition of CDK4 protein expression at 0.1 to 10 nM by Western blot analysis. It is filed as functional, cell-based. The conditions noted are these: dose 0.1-10 nM. (A western blot detects proteins with antibodies after separation by electrophoresis.)

Series [13] has as its target Vascular endothelial growth factor receptor 2 (Homo sapiens) (UniProt P35968). Description: Induction of VEGFR2 (unknown origin) degradation.
The test system of another series is BXPC-3. Description: cells. As to conditions: Homo sapiens, BXPC-3, 72 h.
Series [14] concerns KATO III stomach cancer cell line. The experiment in a line: Induction of cell cycle arrest at G0/G1 phase in FGFR2 amplified human KATO III cells assessed as inhibition of CDK6 protein expression at 0.1 to 10 nM by Western blot analysis. It is filed as functional, cell-based. As to conditions: dose 0.1-10 nM.
Another series has as its system NCI-H1975. The experiment in a line: cells. As to conditions: Homo sapiens, NCI-H1975, 72 h.
The nature of series [15]: Cmax in overnight fasted mouse at 10 mg/kg, po administered as single dose by LC-MS/MS analysis. It is filed as ADME, organism-based. As to conditions: in vivo.
Series [16] addresses T1, Fibroblast growth factor receptor 4. The experiment in a line: Induction of FGFR4 degradation in human Huh-7 cells assessed as reduction in FGFR4 level at 0 to 300 nM measured after 24 hrs by Western blot analysis. It is filed as cell-based. As to conditions: dose 0-300 nM.
Target sequence in this assay (P22455 22-802 limits assumed): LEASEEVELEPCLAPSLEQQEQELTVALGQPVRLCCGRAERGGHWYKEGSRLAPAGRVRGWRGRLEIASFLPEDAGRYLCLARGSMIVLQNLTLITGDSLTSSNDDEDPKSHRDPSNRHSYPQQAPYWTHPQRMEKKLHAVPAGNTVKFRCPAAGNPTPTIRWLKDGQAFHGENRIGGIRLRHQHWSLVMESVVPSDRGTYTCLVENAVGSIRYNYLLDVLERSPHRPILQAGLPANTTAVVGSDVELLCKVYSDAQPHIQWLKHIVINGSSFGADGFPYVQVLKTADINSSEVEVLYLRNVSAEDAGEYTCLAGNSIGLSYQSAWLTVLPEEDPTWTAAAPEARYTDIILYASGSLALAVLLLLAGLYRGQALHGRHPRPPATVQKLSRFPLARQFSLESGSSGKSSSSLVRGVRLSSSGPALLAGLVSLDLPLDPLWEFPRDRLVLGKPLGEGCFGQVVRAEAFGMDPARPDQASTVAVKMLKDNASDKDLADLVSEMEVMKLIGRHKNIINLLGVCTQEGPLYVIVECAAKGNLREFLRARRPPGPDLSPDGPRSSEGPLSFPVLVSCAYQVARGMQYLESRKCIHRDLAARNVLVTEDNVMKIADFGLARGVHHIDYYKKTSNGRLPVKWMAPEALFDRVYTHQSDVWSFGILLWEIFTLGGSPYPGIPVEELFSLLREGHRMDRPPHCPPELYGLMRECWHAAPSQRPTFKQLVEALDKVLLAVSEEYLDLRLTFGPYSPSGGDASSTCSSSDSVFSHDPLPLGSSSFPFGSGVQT
Another series has as its system MDA-MB-231. Description: cells. The conditions noted are these: Homo sapiens, MDA-MB-231, 72 h.
In series [17] the test system is BaF3. The experiment in a line: Antiproliferative activity against mouse BaF3 cells stably expressing wild type ETV6-FGFR2 fusion protein incubated for 72 hrs by CCK-8 assay. It is filed as functional, cell-based. As to conditions: BaF3, 72 h.
In series [18] the target is T3, Fibroblast growth factor receptor 3. The experiment in a line: Induction of FGFR3 degradation in human MCF7 cells assessed as reduction in FGFR3 level at 0 to 300 nM measured after 24 hrs by Western blot analysis. It is filed as cell-based. As to conditions: dose 0-300 nM.
In series [19] the test system is BaF3. The experiment in a line: Antiproliferative activity against mouse BaF3 cells stably expressing wild type ETV6-FGFR4 fusion protein incubated for 72 hrs by CCK-8 assay. It is filed as functional, cell-based. As to conditions: BaF3, 72 h. A general note: Formazan colour is commonly taken as a measure of viable cells.
For series [20], the system named is BaF3. The experiment in a line: Antiproliferative activity against mouse BaF3 cells stably expressing wild type ETV6-FGFR1 fusion protein incubated for 72 hrs by CCK-8 assay. As to conditions: BaF3, 72 h. It is filed as functional, cell-based.
The target of series [21] is T2, Fibroblast growth factor receptor 1. The experiment in a line: Induction of FGFR1 degradation in human BXPC-3 cells assessed as reduction in FGFR1 level at 300 nM measured after 24 hrs by Western blot analysis relative to control. It is filed as cell-based. The arrangement: scale not given: the % may be the effect or the level left.
Series [22] is described as follows: in vitro. As to conditions: human, L02 cells.
A further series deals with SNU-449. The experiment in a line: cells. As to conditions: Homo sapiens, SNU-449, 72 h.
A further series deals with MCF7. Description: cells. As to conditions: Homo sapiens, MCF7, 72 h.
Series [23] can be described thus: Half life in overnight fasted mouse at 10 mg/kg, po administered as single dose by LC-MS/MS analysis. The conditions noted are these: in vivo. It is filed as ADME, organism-based.
Series [24] concerns KATO III stomach cancer cell line. The experiment in a line: Inhibition of PLC-gamma autophosphorylation in human KATO III cells at 1 to 10 nM measured after 24 hrs by Western blot analysis. It is filed as cell-based. The conditions noted are these: dose 1-10 nM.
The next series relates to SNU-16. The experiment in a line: cells. The conditions noted are these: Homo sapiens, SNU-16, 72 h.
For series [25], the target named is T4, Fibroblast growth factor receptor substrate 2 (Homo sapiens) (UniProt Q8WU20).
T4 sequence (whole entry): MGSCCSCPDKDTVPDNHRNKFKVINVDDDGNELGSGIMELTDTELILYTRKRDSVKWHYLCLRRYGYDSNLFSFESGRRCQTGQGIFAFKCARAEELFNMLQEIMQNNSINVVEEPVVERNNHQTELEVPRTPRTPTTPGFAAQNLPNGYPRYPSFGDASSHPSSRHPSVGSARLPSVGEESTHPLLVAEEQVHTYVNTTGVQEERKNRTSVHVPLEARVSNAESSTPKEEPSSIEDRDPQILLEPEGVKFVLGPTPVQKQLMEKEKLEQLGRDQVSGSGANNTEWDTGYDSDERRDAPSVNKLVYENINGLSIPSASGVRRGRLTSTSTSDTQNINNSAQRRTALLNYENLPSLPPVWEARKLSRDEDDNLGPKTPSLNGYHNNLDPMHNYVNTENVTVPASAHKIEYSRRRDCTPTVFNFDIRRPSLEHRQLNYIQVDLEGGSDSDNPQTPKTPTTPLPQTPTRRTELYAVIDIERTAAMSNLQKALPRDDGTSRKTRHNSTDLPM
Description: Inhibition of FRS2 autophosphorylation in human KATO III cells at 1 to 10 nM measured after 24 hrs by Western blot analysis. It is filed as cell-based. The conditions noted are these: KATO III stomach cancer cell line, dose 1-10 nM.

Series [26] can be described thus: in vitro. As to conditions: human, HEK293T cells.
Series [27] concerns AN3-CA. The experiment in a line: cells. The conditions noted are these: Homo sapiens, 72 h.
Description: Antiproliferative activity against human AN3-CA cells overexpressing FGFR2 measured after 72 hrs by MTT assay
Another series relates to A2780. The experiment in a line: cells. As to conditions: Homo sapiens, A2780, 72 h.
Series [28] is described as follows: Oral bioavailability in overnight fasted mouse at 10 mg/kg administered as single dose by LC-MS/MS analysis. It is filed as ADME, organism-based. As to conditions: in vivo.
Series [29] addresses T2, Fibroblast growth factor receptor 1. The experiment in a line: Induction of FGFR1 degradation in human BXPC-3 cells assessed as reduction in FGFR1 level measured after 24 hrs by Western blot analysis. It is filed as cell-based.
Target sequence in this assay (P11362 whole entry): as the sequence (P11362 whole entry) above
Series [30] concerns AN3-CA. Description: Inhibition of cell migration in adherent human AN3-CA cells overexpressing FGFR2 assessed as inhibition of lateral migration at 10 nM incubated for 48 hrs by wound healing assay relative to control. It is filed as functional.
Series [31] is described as follows: Cmax in overnight fasted mouse at 1 mg/kg, iv administered as single dose by LC-MS/MS analysis. It is filed as ADME, organism-based. As to conditions: in vivo.
A short description of series [32]: AUC (0 to t) in overnight fasted mouse at 1 mg/kg, iv administered as single dose by LC-MS/MS analysis. It is filed as ADME, organism-based. The conditions noted are these: in vivo.
Series [33] concerns the target T3, Fibroblast growth factor receptor 3. Description: Induction of FGFR3 degradation in human MCF7 cells assessed as reduction in FGFR3 level measured after 24 hrs by Western blot analysis. It is filed as cell-based.
Target sequence in this assay (P22607 whole entry): as the sequence (P22607 whole entry) above
For series [34], the target named is T1, Fibroblast growth factor receptor 4. The experiment in a line: Induction of FGFR4 degradation in human Huh-7 cells assessed as reduction in FGFR4 level measured after 24 hrs by Western blot analysis. It is filed as cell-based.
Target sequence in this assay (P22455 whole entry): as the sequence (P22455 whole entry) above
The next series is described as follows: cells. The conditions noted are these: Homo sapiens, Huh-7, 72 h.

Chain of Vascular endothelial growth factor receptor 2 (Homo sapiens) (P35968 whole entry): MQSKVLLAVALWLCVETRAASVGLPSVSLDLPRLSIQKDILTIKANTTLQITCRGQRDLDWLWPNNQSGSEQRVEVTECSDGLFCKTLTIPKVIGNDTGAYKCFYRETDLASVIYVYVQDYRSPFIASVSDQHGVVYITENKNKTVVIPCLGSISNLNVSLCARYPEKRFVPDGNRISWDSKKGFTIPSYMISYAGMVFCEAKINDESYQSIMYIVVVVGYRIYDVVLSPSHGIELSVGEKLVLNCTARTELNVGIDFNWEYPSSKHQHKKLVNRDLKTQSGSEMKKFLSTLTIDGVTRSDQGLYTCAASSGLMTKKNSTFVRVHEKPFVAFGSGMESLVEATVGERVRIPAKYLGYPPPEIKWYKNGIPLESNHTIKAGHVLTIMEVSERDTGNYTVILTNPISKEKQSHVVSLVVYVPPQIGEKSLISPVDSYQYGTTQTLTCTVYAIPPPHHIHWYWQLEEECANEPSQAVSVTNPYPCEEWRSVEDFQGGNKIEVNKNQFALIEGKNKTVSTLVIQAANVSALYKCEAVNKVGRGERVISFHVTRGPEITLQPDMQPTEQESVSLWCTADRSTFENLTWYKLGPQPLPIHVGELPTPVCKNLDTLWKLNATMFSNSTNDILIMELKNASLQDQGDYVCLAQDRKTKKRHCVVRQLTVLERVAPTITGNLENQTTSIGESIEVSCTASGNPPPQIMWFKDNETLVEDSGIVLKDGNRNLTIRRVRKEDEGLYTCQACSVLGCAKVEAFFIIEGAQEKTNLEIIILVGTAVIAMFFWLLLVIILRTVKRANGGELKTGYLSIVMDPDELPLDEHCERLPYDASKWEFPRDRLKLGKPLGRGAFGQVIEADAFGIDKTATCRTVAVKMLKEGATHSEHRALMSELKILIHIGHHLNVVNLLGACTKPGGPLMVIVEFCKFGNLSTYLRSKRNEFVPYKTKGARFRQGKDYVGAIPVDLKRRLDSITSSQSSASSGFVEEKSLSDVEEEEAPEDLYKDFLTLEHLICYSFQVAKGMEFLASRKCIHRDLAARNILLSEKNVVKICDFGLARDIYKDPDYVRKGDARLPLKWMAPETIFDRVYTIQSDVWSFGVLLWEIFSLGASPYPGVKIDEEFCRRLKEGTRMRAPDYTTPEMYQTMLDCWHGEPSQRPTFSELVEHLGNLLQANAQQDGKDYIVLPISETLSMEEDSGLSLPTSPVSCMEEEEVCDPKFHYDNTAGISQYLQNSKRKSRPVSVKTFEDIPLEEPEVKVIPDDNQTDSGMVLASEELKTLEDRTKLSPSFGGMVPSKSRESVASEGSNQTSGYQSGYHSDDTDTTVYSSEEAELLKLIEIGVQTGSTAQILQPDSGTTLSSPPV
Description for SNU-16: Antiproliferative activity against FGFR2 amplified human SNU-16 cells measured after 72 hrs by MTT assay

`COc1cc(OC)c(Cl)c(NC(=O)N(C)c2cc(Nc3ccc(N4CCN(CC(=O)N[C@H](C(=O)N5C[C@H](O)C[C@H]5C(=O)N[C@@H](C)c5ccc(-c6scnc6C)cc5)C(C)(C)C)CC4)cc3)ncn2)c1Cl`: the DC50 in series [1] is 70 nM.
Consider `C[C@@H](Oc1ccc2[nH]nc(/C=C/c3cnn(CCNC(=O)CCCCCNc4ccc5c(c4)C(=O)N(C4CCC(=O)NC4=O)C5=O)c3)c2c1)c1c(Cl)cncc1Cl` (stereo partly drawn), for which the AUC(0-t) in [2] turned out to be 9.61 ng·h/mL; in series [32], 151 ng·h/mL. Besides, the half-life in [3] was 4.14 min; in series [23], 45 min. Also, the Tmax in [4] was 30 min. The IC50 was found to be 0.2 nM in the series with BaF3 [5]; 15.1 nM in series [6]; 1.47 nM in series [7]; 1.26 nM in [9]; 1910 nM with HCT-116; 0.79 nM in [11]. Moreover, the concentration for half-maximal inhibition (IC50) in the series on BXPC-3 came out at 997 nM; in the series with NCI-H1975 it was 2240 nM; in the series with MDA-MB-231 it was 2520 nM; in the series on BaF3 [17] it was 0.91 nM; with BaF3 [19] it was 32.7 nM; with BaF3 [20], 27.5 nM. Besides, the concentration for half-maximal inhibition (IC50) in the series with SNU-449 was 923 nM; with MCF7, 2980 nM; in the series with SNU-16, 0.207 nM; with AN3-CA [27], 4.63 nM; with A2780 it was 627 nM; in the series “cells” it was greater than 5000 nM. Besides, the result in [8], in series [10], in series [12] and in [14] was Active. Besides, the result in series [13], in series [16] and in series [18] was inactive. In addition, the Cmax stood at 19.4 ng/mL in [15] and 1940 ng/mL in series [31]. Moreover, the Activity in series [21] worked out at 30%. For the same molecule, the concentration for half-maximal inhibition (IC50) at 72 h in “in vitro [22]” was greater than 5000 nM; in the series “in vitro [26]”, 2140 nM. Also, the inhibition entry in series [24] and in series [25] was “Active” each time. In [28], this molecule registered a bioavailability of 0.64%. The half-maximal degradation concentration (DC50) in series [29], in [33] and in series [34] was greater than 300 nM throughout. Besides, the inhibition at 0.01 µM in the series on AN3-CA [30] was greater than 15%.
